Experiments:
[1] = buffer, pH 1
[2] = Metabolic stability in rat plasma assessed as compound remaining after 60 mins by HPLC analysis; type: ADME, cell-free; conditions: read-out: Stability
[3] = Metabolic stability in rat plasma assessed as compound remaining after 120 mins by HPLC analysis; type: ADME, cell-free; conditions: read-out: Stability
[4] = physchem; conditions: octanol/0.2 M phosphate buffer, pH 7.4
[5] = test system: Rattus norvegicus; assay: Gastrointestinal toxicity in Wistar rat assessed as ulcer area of <1 mm diameter at 100 mg/kg, po; type: organism-based; parameters: dose 100 mg/kg, route oral; conditions: in vivo
[6] = test system: Rattus norvegicus; assay: Gastrointestinal toxicity in Wistar rat assessed as ulcer area of >3 mm diameter at 100 mg/kg, po; type: organism-based; parameters: dose 100 mg/kg, route oral; conditions: in vivo
[7] = test system: Rattus norvegicus; assay: Gastrointestinal toxicity in Wistar rat assessed as ulcer index at 100 mg/kg, po; type: organism-based; parameters: dose 100 mg/kg, route oral; conditions: in vivo
[8] = Aqueous solubility of the compound in acetate buffer at pH 5.5 by HPLC analysis
[9] = physchem; conditions: octanol/0.1 M citric acid buffer, pH 3
[10] = buffer, pH 3
[11] = buffer, pH 9
[12] = buffer, pH 7.4
[13] = test system: Rattus norvegicus; assay: Gastrointestinal toxicity in Wistar rat assessed as ulcer area of 1-3 mm diameter at 100 mg/kg, po; type: organism-based; parameters: dose 100 mg/kg, route oral; conditions: in vivo
[14] = test system: Rattus norvegicus; assay: Antiinflammatory activity in Wistar rat assessed as inhibition of carrageenan-induced paw edema at 100 mg/kg, po administered 1 hr before carrageenan challenge measured after 180 mins; type: functional; parameters: scale not given: the % may be the effect or the level left
[15] = Metabolic stability in rat liver microsomes assessed as compound remaining after 30 mins by HPLC analysis; type: ADME, Microsome; conditions: read-out: Stability
[16] = Metabolic stability in rat liver microsomes assessed as compound remaining after 60 mins by HPLC analysis; type: ADME, Microsome; conditions: read-out: Stability
[17] = test system: Rattus norvegicus; assay: Gastrointestinal toxicity in Wistar rat assessed as ulcer index at 50 mg/kg, po; type: organism-based; parameters: dose 50 mg/kg, route oral; conditions: in vivo
[18] = test system: Rattus norvegicus; assay: Gastrointestinal toxicity in Wistar rat assessed as ulcer area of 1-3 mm diameter at 50 mg/kg, po; type: organism-based; parameters: dose 50 mg/kg, route oral; conditions: in vivo
[19] = test system: Rattus norvegicus; assay: Gastrointestinal toxicity in Wistar rat assessed as ulcer area of <1 mm diameter at 50 mg/kg, po; type: organism-based; parameters: dose 50 mg/kg, route oral; conditions: in vivo
[20] = test system: Rattus norvegicus; assay: Antiinflammatory activity in Wistar rat assessed as inhibition of carrageenan-induced paw edema at 50 mg/kg, po administered 1 hr before carrageenan challenge measured after 180 mins; type: functional; parameters: scale not given: the % may be the effect or the level left
[21] = test system: Rattus norvegicus; assay: Gastrointestinal toxicity in Wistar rat assessed as ulcer area of >3 mm diameter at 50 mg/kg, po; type: organism-based; parameters: dose 50 mg/kg, route oral; conditions: in vivo

Row | SMILES | solubility [1] | remaining at 1 h [2] [%] | remaining at 2 h [3] [%] | logD [4] | Activity [5] [%] | UI [7] | solubility [8] | logD [9] | solubility [10] | solubility [11] | solubility [12] | Activity [14] [%] | remaining at 0.5 h [15] [%] | remaining at 1 h [16] [%] | further results
1 | CC(C)OC(=O)OCOC(=O)Cc1ccccc1Nc1c(Cl)cccc1Cl | BLD | 0 | 0 | 2.46 | 91.4 | 40 | BLD | 3.9 | BLD | BLD | BLD | 40.88 | 2.2 | 1.2 | Activity [6]: 5.71%; Activity [13]: 2.86%
2 | CC(C)(C)C(=O)OCOC(=O)Cc1ccccc1Nc1c(Cl)cccc1Cl | BLD | 0 | 0 | 3.72 | 100 | 6 | BLD | 4.08 | BLD | BLD | BLD | 56.33 | 2.5 | 0 | –
3 | CC(=O)OCCOC(=O)Cc1ccccc1Nc1c(Cl)cccc1Cl | BLD | 0 | 0 | 4.57 | 100 | 8 | BLD | 4.33 | BLD | BLD | BLD | 47.51 | 0 | 0 | –
4 | O=C([O-])Cc1ccccc1Nc1c(Cl)cccc1Cl.[Na+] [DICLOFENAC SODIUM] | – | 86.2 | 69.4 | – | – | – | – | – | – | – | – | – | 84.4 | 88.8 | UI [17]: 63; Activity [18]: 14%; Activity [19]: 80%; Activity [20]: 49.17%; Activity [21]: 6%

From ChEMBL document CHEMBL1765060, “Synthesis, characterization, and biological evaluation of novel diclofenac prodrugs” (J Med Chem, 2011)
